“Also recorded” adds a separate entry of the source.
What was measured:
[1] = Phase I Holter ECG assessment and concentration-QTcF analysis; assay type: in vivo, human; details: for Mean ΔΔQTcF: 100 mg dose group (n=6); for Predicted mean ΔΔQTcF: linear mixed model
Procedure: Holter ECG recordings of 24 h duration were performed on Day 1 in Parts 1 and 2 of the study using digital 12-lead Holter devices (GI M12R, Manlius, N.Y.) and analyzed in the Quintiles central ECG laboratory. Ten second 12-lead ECGs were extracted in triplicate using Antares ECG extraction software (version 2.15.1.0, AMPS-LLC, New York, N.Y.) for each PK time point (predose and 0.25, 0.5, 1.0, 1.5, 2, 2.5, 3, 4, 5, 6, 8, 12, 16, 24 h postdose) within a −5 to 0 minute window prior to and a 5 minute window after each sampling time point. The quality of extracted ECG snapshots was checked by a Holter Associate/Specialist using the Anatares quality control review interface. The mean QT and RR values from the triplicate ECGs were used to calculate QTcF for each time point.
The dataset consisted of Day 1 ECG and PK data from all subjects in Parts 1 and 2 of the study.
Model derived predicted mean ΔΔQTcF was calculated for the geometric mean Cmax of each dose cohort. Two-sided 90% CIs of the estimate were determined using bootstrapping (1,000 resamples). By-time point analysis of actual values and change from baseline was performed for QTcF. Mean ΔΔQTcF with an associated 90% CI was summarized by time point for each dose cohort.

[2] = test system: human patients suffering from relapsing multiple sclerosis (RMS); assay: Phase II RMS study: HRQoL SF-36 Physical Component Summary score; assay type: in vivo; details: for Difference in LS means of CFB in PCS score vs placebo: week 24, MMRM
Procedure: Analysis of Primary Endpoint
Primary and secondary efficacy endpoints were analysed based on the modified intention-to-treat (mITT) analysis set, consisting of all randomized patients with at least one available baseline and one post-baseline MRI assessment. […] For each endpoint, rate ratio (RR; null-hypothesis RR=1.0) adjusted for baseline disease activity was reported together with associated 95% CI and p-value. The T2 lesion endpoint was analysed similarly. Dose-response relationships between evobrutinib treatment dose and primary and key secondary endpoints were assessed for linear and monotonic trend. The analysis of CFB in cube root of volume of T2 lesions at Week 24 was based on a mixed-effect model for repeated measures, with fixed effects for treatment, week of visit, and treatment-by-week interaction, random effect for subject, and adjustment for baseline cube root of lesion volume. CFB in SF-36 score at Week 24 was analysed similarly. Descriptive statistics were used to further describe the study outcomes.

RA and SLE models = details: in vivo; cited from earlier work

In the case of `C=CC(=O)N1CCC(CNc2ncnc(N)c2-c2ccc(Oc3ccccc3)cc2)CC1` [Evobrutinib, 1-(4-(((6-amino-5-(4-phenoxyphenyl)pyrimidin-4-yl)amino)methyl)piperidin-1-yl)prop-2-en-1-one], the “Geometric mean Cmax” value ([1]; 25 mg dose group, Day 1, Parts 1 and 2) is reported as 86.48 ng/mL, the “Geometric mean Cmax” value ([1]; 25 mg dose group, Day 1, Parts 1 and 2, listed as evobrutinib) is reported as 86.5 ng/mL and the “Geometric mean Cmax” value ([1]; 50 mg dose group, Day 1) is reported as 233.9 ng/mL. For the same molecule, the “Geometric mean Cmax” value ([1]; 75 mg dose group, Day 1) was 253.9 ng/mL, the “Mean ΔΔQTcF” value ([1]; 6 h post-dose) was 7.1 ms and the “Mean ΔΔQTcF” value ([1]; 8 h post-dose) was 5.6 ms. The “Mean ΔΔQTcF” value ([1]; 12 h post-dose) was 7.2 ms, the “Geometric mean Cmax” value ([1]; 100 mg dose group, Day 1) was 308.6 ng/mL and the “Geometric mean Cmax” value ([1]; 200 mg dose group, Day 1, Parts 1 and 2) was 689.2 ng/mL. For the same molecule, the “Geometric mean Cmax” value ([1]; 350 mg dose group, Day 1) was 845.9 ng/mL, the “Geometric mean Cmax” value ([1]; 500 mg dose group, Day 1) was 1512.3 ng/mL and the “Geometric mean Cmax” value ([1]; 500 mg dose group, Day 1, listed as evobrutinib) was 1,512 ng/ml. For the same molecule, the “Subjects with change from baseline in QTcF between 30 ms and 60 ms” value ([1]; 2 of 81 subjects, both in the 200 mg dose group) was 2.5%, the “Change from baseline in QTcF” value ([1]; all ECGs) was no more than 60 ms and the “Mean ΔΔQTcF over the range of doses evaluated” value ([1]; all time points, with the exception of the 100 mg dose group) was less than 5 ms. For the same molecule, the “Absolute QTcF value” ([1]; any dose group, any time point) was no more than 450 ms, the “Predicted mean ΔΔQTcF” value ([1]; at geometric mean Cmax of 25 mg dose group) was -0.78 ms and the “Predicted mean ΔΔQTcF” value ([1]; at geometric mean Cmax of 50 mg dose group) was -0.82 ms. For the same molecule, the “Predicted mean ΔΔQTcF” value ([1]; at geometric mean Cmax of 75 mg dose group) was -0.82 ms, the “Predicted mean ΔΔQTcF” value ([1]; at geometric mean Cmax of 100 mg dose group) was -0.84 ms and the “Predicted mean ΔΔQTcF” value ([1]; at geometric mean Cmax of 200 mg dose group) was -0.94 ms. For the same molecule, the “Predicted mean ΔΔQTcF” value ([1]; at geometric mean Cmax of 350 mg dose group) was -0.98 ms, the “Predicted mean ΔΔQTcF” value ([1]; at geometric mean Cmax of 500 mg dose group) was -1.16 ms and the “Change from baseline in HR, PR and QRS values post-dose” value ([1]; categorical analysis) was “no clinically significant change from baseline”. For the same molecule, the “Slope of the relationship between placebo-adjusted ΔQTcF and concentration” value ([1]; linear mixed-effects model, P=0.86) was −0.00027 ms/ng per mL, the “Subjects with treatment-emergent T wave morphological abnormalities” value ([1]; one in the 50 mg and one in the 100 mg dose group) was “two” and the “Effect on QTcF / exposure-effect relationship” value ([1]; single doses up to 500 mg) was “did not prolong QTcF; also recorded: No evidence of a significant exposure-effect relationship; also recorded: no prolongation of QTcF”. For the same molecule, the “Hysteresis between plasma concentration and ΔQTcF” value ([1]; statistical test based on ΔΔQTcF) was “no evidence of hysteresis”, the “Change in SF-36 PCS score from baseline to week 24, Mean ± SD” value (shortened to “Change in SF-36 PCS score … Mean ± SD”) ([2]; 25 mg QD) was 0.8 ± 5.93 and the “Change in SF-36 PCS score from baseline to week 24, Median” value (from here on “Change in SF-36 PCS score … Median”) ([2]; 25 mg QD) was 0.3. For the same molecule, the “Difference in LS means of CFB in PCS score vs placebo” value (shortened to “Difference in LS means of CFB”) ([2]; 25 mg QD) was 1.73, the “Change in SF-36 PCS score … Mean ± SD” value ([2]; 75 mg BID) was 1.1 ± 5.22 and the “Change in SF-36 PCS score … Median” value ([2]; 75 mg BID) was 1.3. For the same molecule, the “Difference in LS means of CFB” value ([2]; 75 mg BID) was 1.93, the “Change in SF-36 PCS score … Mean ± SD” value ([2]; 75 mg QD) was 1.5 ± 7.09 and the “Change in SF-36 PCS score … Median” value ([2]; 75 mg QD) was 0.6. For the same molecule, the “Difference in LS means of CFB” value ([2]; 75 mg QD) was 1.95, the “Change in SF-36 PCS score … Mean ± SD” value ([2]; 75 mg QD, listed as evobrutinib) was 1.5±7.09 and the “Activity in RA and SLE models” value (RA and SLE models) was “robust activity”.
